Legend:
Karpas-299 cells = assay: Cellular Toxicity Test (1), CellTiter-Glo cell viability; format: cell-based, human; details: Homo sapiens, 96 h, cultured 4 days, cell viability
Procedure: Karpas-299 cells (European Collection of Authenticated Cell Cultures, hereinafter, ECACC), which are human lymphoma cell lines, were cultured in RPMI 1640 (GIBCO) containing 10% fetal bovine serum (MP Biomedicals) (hereinafter, referred to as the “culture medium”). Cells were prepared to be 2×10^6 cells/mL in the culture medium, and were added to a 96 well microplate for cell culturing in an amount of 50 μL for each well. Compounds of Examples or Comparative Example compound 4 times diluted with the culture medium in 8 stages were added to the microplate in an amount of 50 μL for each well. These were cultured at 37 degree under 5% CO2 for 4 days. After culturing, the microplate was taken out from the incubator, and was left at rest at room temperature for 10 minutes. To each well, 50 μL of CellTiter-Glo Luminescent Cell Viability Assay (Promega) was added, and the resultant mixture was stirred. This mixture was incubated at a dark place for 20 minutes. Using a microplate luminometer, luminescence at each well was measured, thereby calculating the cell viability. In addition, from the value of cell viability, the IC50 value was calculated.
The IC50 value was calculated by the following formula: IC50 (nM)=antilog(LOG10(a/b)×(e−d)/(c−d)+LOG10b) a: concentration a of test substance b: concentration b of test substance c: cell viability upon adding test substance with concentration a d: cell viability upon adding test substance with concentration b e: intermediate value between maximum and minimum among cell viabilities upon adding test substances with different concentrations (a and b are concentrations crossing the cell viability e, and a>b is indicated).
The cell viability at each concentration was calculated by the following formula: Cell Viability (%)=a′/b′×100 a′: mean value of luminescence amount of wells to which test substance was added (n=6) b′: mean value of luminescence amount of wells to which test substance was not added (n=6) (n represents the number of evaluations performed per test substance concentration).

[1] = Membrane Permeability Test, parallel artificial membrane permeability assay (PAMPA); format: in vitro ADME; details: pH 7.4, pH7.4, 37° C., read-out: Pe (pH7.4)
Procedure: By the parallel artificial membrane permeability assay (PAMPA), the membrane permeability of compounds of Examples was examined as follows: To the donor plate, System solution (pION inc.) and GIT Lipid-0 (pION inc.) were added in an amount of 200 μL and 4 μL for each well, respectively. To the acceptor plate, Acceptor Sink Buffer (pION inc.) was added in an amount of 200 μL. Both plates were superposed and incubated at 37° C. for 4 hours, and then, UVs in the solutions on the side of acceptor and on the side of donor were measured with an UV plate reader (190 to 500 nm). Compounds with poor UV absorption were measured by LC-MS. The permeability coefficient Pe (10^−6 cm/sec) of the drug was calculated by the following formula.
[formula] • ra=(VD/VA)Pa^(A-D)/Pa^(D-A)=rVPe^(A-D)/Pa^(D-A) • rV=(VD/VA) • VD=volume of doner well • VA=volume of acceptor well • t=permeation time • τ^SS=steady state time • R=retention • CD=CA=concentration in donor and acceptor well

SMILES: CN[C@H](C(=O)N[C@H](C(=O)N(C)[C@H](/C=C(\C)C(=O)N[C@H](CCC(=O)NCCN1C(=O)C=CC1=O)C(=O)O)C(C)C)C(C)(C)C)C(C)(C)c1cccc(C#N)c1 [Example M35]
- IC50 (Karpas-299 cells): 0.0086 µM
- Papp at 4 h [1]: 0.8 ×10⁻⁶ cm/s

SMILES: CN[C@H](C(=O)N[C@H](C(=O)N(C)[C@H](/C=C(\C)C(=O)N[C@H](CCC(=O)NCCN1C(=O)C=CC1=O)C(=O)O)C(C)C)C(C)(C)C)C(C)(C)c1ccc(C(=O)O)cc1 [Example M36]
- IC50 (Karpas-299 cells): > 1 µM
- Papp at 4 h [1]: 0.6 ×10⁻⁶ cm/s

SMILES: CN[C@H](C(=O)N[C@H](C(=O)N(C)[C@H](/C=C(\C)C(=O)N[C@H](CC(=O)NCCN1C(=O)C=CC1=O)C(=O)O)C(C)C)C(C)(C)C)C(C)(C)c1cn(C)c2ccccc12 [Example M20]
- IC50 (Karpas-299 cells): 0.406 µM
- Papp at 4 h [1]: < 0.1 ×10⁻⁶ cm/s

SMILES: CN[C@H](C(=O)N[C@H](C(=O)N(C)[C@H](/C=C(\C)C(=O)N[C@H](CCC(=O)NCCCN1C(=O)C=CC1=O)C(=O)O)C(C)C)C(C)(C)C)C(C)(C)c1ccccc1 [Example M16]
- IC50 (Karpas-299 cells): 0.573 µM

SMILES: CNC(C(=O)N[C@H](C(=O)N(C)[C@H](/C=C(\C)C(=O)N[C@H](CCC(=O)NCCN1C(=O)C=CC1=O)C(=O)O)C(C)C)C(C)(C)C)C(C)(C)c1ccc(O)cc1 (stereo partly drawn) [Example M34]
- IC50 (Karpas-299 cells): 0.008 µM
- Papp at 4 h [1]: 2.7 ×10⁻⁶ cm/s

SMILES: CN[C@H](C(=O)N[C@H](C(=O)N(C)[C@H](/C=C(\C)C(=O)N[C@H](CCC(=O)NCCN1C(=O)C=CC1=O)C(=O)O)C(C)C)C(C)(C)C)C(C)(C)C1CCCCC1 [Example M33]
- IC50 (Karpas-299 cells): 0.228 µM
- Papp at 4 h [1]: < 0.1 ×10⁻⁶ cm/s

SMILES: CN[C@H](C(=O)N[C@H](C(=O)N(C)[C@H](/C=C(\C)C(=O)N[C@H](CCC(=O)NCCCCN1C(=O)C=CC1=O)C(=O)O)C(C)C)C(C)(C)C)C(C)(C)c1ccccc1 [Example M17]
- IC50 (Karpas-299 cells): 0.035 µM
- Papp at 4 h [1]: < 0.1 ×10⁻⁶ cm/s

SMILES: CN[C@H](C(=O)N[C@H](C(=O)N(C)[C@H](/C=C(\C)C(=O)N[C@@H](CC(=O)NCCN1C(=O)C=CC1=O)C(=O)O)C(C)C)C(C)(C)C)C(C)(C)c1ccccc1 [Example M10]
- IC50 (Karpas-299 cells): 0.544 µM
- Papp at 4 h [1]: < 0.1 ×10⁻⁶ cm/s

SMILES: CN[C@H](C(=O)N[C@H](C(=O)N(C)[C@H](/C=C(\C)C(=O)N[C@@H](CCCCNC(=O)CCCN1C(=O)C=CC1=O)C(=O)O)C(C)C)C(C)(C)C)C(C)(C)c1cn(C)c2ccccc12 [Example M27]
- IC50 (Karpas-299 cells): 0.192 µM
- Papp at 4 h [1]: < 0.1 ×10⁻⁶ cm/s

SMILES: CN[C@H](C(=O)N[C@H](C(=O)N(C)[C@H](/C=C(\C)C(=O)N[C@H](CC(=O)O)C(=O)NCCN1C(=O)C=CC1=O)C(C)C)C(C)(C)C)C(C)(C)c1ccccc1 [Example M13]
- IC50 (Karpas-299 cells): 0.999 µM

SMILES: CN[C@H](C(=O)N[C@H](C(=O)N(C)[C@H](/C=C(\C)C(=O)N[C@H](CCC(=O)NCCN1C(=O)C=CC1=O)C(=O)O)C(C)C)C(C)(C)C)C(C)(C)c1cccc(F)c1 [Example M32]
- IC50 (Karpas-299 cells): 0.616 µM
- Papp at 4 h [1]: 0.6 ×10⁻⁶ cm/s

SMILES: CN[C@H](C(=O)N[C@H](C(=O)N(C)[C@H](/C=C(\C)C(=O)N[C@H](CC(=O)NCCN1C(=O)C=CC1=O)C(=O)O)C(C)C)C(C)(C)C)C(C)(C)c1ccccc1 [Example M9]
- IC50 (Karpas-299 cells): 0.576 µM
- Papp at 4 h [1]: < 0.1 ×10⁻⁶ cm/s

SMILES: CN[C@H](C(=O)N[C@H](C(=O)N(C)[C@H](/C=C(\C)C(=O)N[C@@H](CCC(=O)O)C(=O)NCCN1C(=O)C=CC1=O)C(C)C)C(C)(C)C)C(C)(C)c1ccccc1 [Example M12]
- IC50 (Karpas-299 cells): 0.0298 µM
- Papp at 4 h [1]: < 0.1 ×10⁻⁶ cm/s

SMILES: CN[C@H](C(=O)N[C@H](C(=O)N(C)[C@H](/C=C(\C)C(=O)NCCCC[C@@H](NC(=O)CCCN1C(=O)C=CC1=O)C(=O)O)C(C)C)C(C)(C)C)C(C)(C)c1ccccc1 [Example M28]
- IC50 (Karpas-299 cells): 0.0508 µM
- Papp at 4 h [1]: < 0.1 ×10⁻⁶ cm/s

SMILES: C/C(=C\[C@H](C(C)C)N(C)C(=O)[C@@H](NC(=O)[C@@H](NC(=O)CCCCCN1C(=O)C=CC1=O)C(C)(C)c1cn(C)c2ccccc12)C(C)(C)C)C(=O)N[C@H](CCC(=O)O)C(=O)O [Example M48]
- IC50 (Karpas-299 cells): > 1 µM
- Papp at 4 h [1]: 0.3 ×10⁻⁶ cm/s

SMILES: CN[C@H](C(=O)N[C@H](C(=O)N(C)[C@H](/C=C(\C)C(=O)N[C@H](CCC(=O)NCCN1C(=O)C=CC1=O)C(=O)O)C(C)C)C(C)(C)C)C(C)(C)c1cccc(-c2ccccc2)c1 [Example M41]
- IC50 (Karpas-299 cells): 0.0263 µM
- Papp at 4 h [1]: 0.8 ×10⁻⁶ cm/s

SMILES: C/C(=C\[C@H](C(C)C)N(C)C(=O)[C@@H](NC(=O)[C@@H](N(C)C)C(C)(C)c1ccccc1)C(C)(C)C)C(=O)N[C@H](CCC(=O)NCCN1C(=O)C=CC1=O)C(=O)O [Example M49, N^2—((S,E)-4-((S)-2-((S)-2-(Dimethylamino)-3-methyl-3-phenylbutanamido)-N,3,3-trimethylbutanamido)-2,5-dimethylhex-2-enoyl)-N^5-(2-(2,5-dioxo-2,5-dihydro-1H-pyrrolo-1-yl)ethyl)-D-glutamine]
- IC50 (Karpas-299 cells): > 1 µM

SMILES: CN[C@H](C(=O)N[C@H](C(=O)N(C)[C@H](/C=C(\C)C(=O)N[C@@H](CCC(=O)NCCN1C(=O)C=CC1=O)C(=O)O)C(C)C)C(C)(C)C)C(C)(C)c1ccccc1 [Example M11]
- IC50 (Karpas-299 cells): > 1 µM
- Papp at 4 h [1]: < 0.1 ×10⁻⁶ cm/s

SMILES: CN[C@H](C(=O)N[C@H](C(=O)N(C)[C@H](/C=C(\C)C(=O)N[C@@H](CC(=O)NCCN1C(=O)C=CC1=O)C(=O)O)C(C)C)C(C)(C)C)C(C)(C)c1cn(C)c2ccccc12 [Example M19]
- IC50 (Karpas-299 cells): 0.169 µM
- Papp at 4 h [1]: < 0.1 ×10⁻⁶ cm/s

SMILES: CN[C@H](C(=O)N[C@H](C(=O)N(C)[C@H](/C=C(\C)C(=O)N[C@@H](CCC(=O)NCCN1C(=O)C=CC1=O)C(=O)O)C(C)C)C(C)(C)C)C(C)(C)c1cn(C)c2ccccc12 [Example M18]
- IC50 (Karpas-299 cells): 0.148 µM
- Papp at 4 h [1]: < 0.1 ×10⁻⁶ cm/s

SMILES: CN[C@H](C(=O)N[C@H](C(=O)N(C)[C@H](/C=C(\C)C(=O)N[C@H](CCC(=O)N[C@@H](CCCCNC(=O)CCCCCN1C(=O)C=CC1=O)C(=O)O)C(=O)O)C(C)C)C(C)(C)C)C(C)(C)c1cn(C)c2ccccc12 [Example M2, N-{(2E,4S)-2,5-Dimethyl-4-[methyl(N,β,β,1-tetramethyl-L-tryptophyl-3-methyl-L-valyl)amino]hex-2-enoyl}-D-γ-glutamyl-N^6-[6-(2,5-dioxo-2,5-dihydro-1H-pyrrol-1-yl)hexanoyl]-L-lysine]
- IC50 (Karpas-299 cells): 0.78 µM
- Papp at 4 h [1]: < 0.1 ×10⁻⁶ cm/s

SMILES: CN[C@H](C(=O)N[C@H](C(=O)N(C)[C@H](/C=C(\C)C(=O)N[C@H](CCC(=O)NCCN1C(=O)C=CC1=O)C(=O)O)C(C)C)C(C)(C)C)C(C)(C)c1ccc2ccccc2c1 [Example M40]
- IC50 (Karpas-299 cells): 0.176 µM
- Papp at 4 h [1]: < 0.1 ×10⁻⁶ cm/s

SMILES: CN[C@H](C(=O)N[C@H](C(=O)N(C)[C@H](/C=C(\C)C(=O)N[C@H](CCC(=O)NCCN1C(=O)C=CC1=O)C(=O)O)C(C)C)C(C)(C)C)C(C)(C)c1cccc(OC)c1 [Example M37]
- IC50 (Karpas-299 cells): 0.403 µM
- Papp at 4 h [1]: < 0.1 ×10⁻⁶ cm/s

SMILES: CN[C@H](C(=O)N[C@H](C(=O)N(C)[C@H](/C=C(\C)C(=O)N[C@H](CC(=O)O)C(=O)NCCN1C(=O)C=CC1=O)C(C)C)C(C)(C)C)C(C)(C)c1cn(C)c2ccccc12 [Example M24]
- IC50 (Karpas-299 cells): 0.166 µM
- Papp at 4 h [1]: < 0.1 ×10⁻⁶ cm/s

SMILES: CN[C@H](C(=O)N[C@H](C(=O)N(C)[C@H](/C=C(\C)C(=O)N[C@@H](CC(=O)O)C(=O)NCCN1C(=O)C=CC1=O)C(C)C)C(C)(C)C)C(C)(C)c1ccccc1 [Example M14]
- IC50 (Karpas-299 cells): > 1 µM

SMILES: CNC(C(=O)N[C@H](C(=O)N(C)[C@H](/C=C(\C)C(=O)N[C@H](CCC(=O)O)C(=O)O)C(C)C)C(C)(C)C)C(C)(C)c1ccc(OC(=O)CCN2C(=O)C=CC2=O)cc1 (stereo partly drawn) [Example M30]
- Papp at 4 h [1]: < 0.1 ×10⁻⁶ cm/s

SMILES: CN[C@H](C(=O)N[C@H](C(=O)N(C)[C@H](/C=C(\C)C(=O)N[C@H](CCC(=O)O)C(=O)NCCN1C(=O)C=CC1=O)C(C)C)C(C)(C)C)C(C)(C)c1ccccc1 [Example M15]
- IC50 (Karpas-299 cells): > 1 µM

Reference: patent US11795195B2, “Antibody-drug conjugates including hemiasterlin derivative” (Sumitomo Pharma Co., Ltd., priority 2017, dated 2023)
